Assay results reported in ChEMBL document CHEMBL1201862, “PubChem BioAssay data set” (2004).
Active and inactive are the calls of the source.

Experiments:
[1] = target: T1, Replicative DNA helicase DnaB (Mycobacterium tuberculosis, UniProt P9WMR3); assay: DnaB intein splicing inhibitors, dose response, biochemical, cell-free fluorescence (AID 449749); type: functional
T1 sequence (P9WMR3 whole entry): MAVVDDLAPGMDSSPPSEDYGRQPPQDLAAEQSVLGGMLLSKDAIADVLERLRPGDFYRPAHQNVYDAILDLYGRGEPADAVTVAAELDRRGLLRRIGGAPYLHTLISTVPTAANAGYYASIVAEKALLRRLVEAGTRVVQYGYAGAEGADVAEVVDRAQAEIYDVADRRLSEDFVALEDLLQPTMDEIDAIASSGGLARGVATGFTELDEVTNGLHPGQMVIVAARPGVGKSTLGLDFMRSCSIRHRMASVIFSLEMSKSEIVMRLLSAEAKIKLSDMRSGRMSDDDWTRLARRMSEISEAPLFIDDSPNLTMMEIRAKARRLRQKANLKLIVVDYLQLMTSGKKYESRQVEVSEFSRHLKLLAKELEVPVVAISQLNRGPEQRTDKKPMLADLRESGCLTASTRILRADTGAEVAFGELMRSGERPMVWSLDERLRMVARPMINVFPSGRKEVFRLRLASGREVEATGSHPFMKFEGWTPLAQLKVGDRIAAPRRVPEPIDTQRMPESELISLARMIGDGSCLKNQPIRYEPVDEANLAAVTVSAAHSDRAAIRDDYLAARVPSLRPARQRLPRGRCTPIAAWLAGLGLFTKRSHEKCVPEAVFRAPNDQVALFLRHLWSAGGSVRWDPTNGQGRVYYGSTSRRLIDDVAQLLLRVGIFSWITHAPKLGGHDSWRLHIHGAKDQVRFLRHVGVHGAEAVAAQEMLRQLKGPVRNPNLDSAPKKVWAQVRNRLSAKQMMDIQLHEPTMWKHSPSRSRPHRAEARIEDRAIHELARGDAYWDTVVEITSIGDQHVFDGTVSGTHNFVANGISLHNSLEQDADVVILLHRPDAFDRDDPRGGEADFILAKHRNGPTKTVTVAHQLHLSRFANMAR

[2] = target: T2, Protein RecA (Mycobacterium tuberculosis, UniProt P9WHJ3); assay: Fluorescence Cell-Free Homogeneous Dose Retest to Identify Inhibitors of RecA-Intein Splicing Activity. [Related pubchem assays (depositor defined):AID2097, AID2223, AID489010, AID492950]; type: functional
T2 sequence (P9WHJ3 whole entry): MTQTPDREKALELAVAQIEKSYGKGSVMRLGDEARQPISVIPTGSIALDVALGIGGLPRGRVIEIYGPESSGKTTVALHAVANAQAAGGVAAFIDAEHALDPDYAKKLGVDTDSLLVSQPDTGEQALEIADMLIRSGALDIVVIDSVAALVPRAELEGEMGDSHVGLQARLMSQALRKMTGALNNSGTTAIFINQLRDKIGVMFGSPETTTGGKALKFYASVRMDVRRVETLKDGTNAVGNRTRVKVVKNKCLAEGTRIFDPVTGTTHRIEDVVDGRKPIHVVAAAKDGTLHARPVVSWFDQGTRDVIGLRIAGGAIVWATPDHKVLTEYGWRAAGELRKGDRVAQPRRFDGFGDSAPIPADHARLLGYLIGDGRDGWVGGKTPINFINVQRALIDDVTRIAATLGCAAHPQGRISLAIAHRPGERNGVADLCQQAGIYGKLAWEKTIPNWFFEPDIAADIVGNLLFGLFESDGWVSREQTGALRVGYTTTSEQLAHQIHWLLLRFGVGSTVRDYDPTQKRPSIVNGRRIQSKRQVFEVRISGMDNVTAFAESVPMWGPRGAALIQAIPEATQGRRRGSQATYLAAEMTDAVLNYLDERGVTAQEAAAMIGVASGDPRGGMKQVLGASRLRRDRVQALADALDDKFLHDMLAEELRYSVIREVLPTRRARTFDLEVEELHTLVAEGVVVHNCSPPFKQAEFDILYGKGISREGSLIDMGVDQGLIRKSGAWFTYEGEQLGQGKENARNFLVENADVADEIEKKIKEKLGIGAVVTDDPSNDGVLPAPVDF

[3] = target: T3, Fructose-bisphosphate aldolase (Mycobacterium tuberculosis, UniProt P9WQA3); assay: Fluorescence-based biochemical high throughput dose response assay for inhibitors of the fructose-bisphosphate aldolase (FBA) of M. tuberculosis.; type: functional
T3 sequence (P9WQA3 whole entry): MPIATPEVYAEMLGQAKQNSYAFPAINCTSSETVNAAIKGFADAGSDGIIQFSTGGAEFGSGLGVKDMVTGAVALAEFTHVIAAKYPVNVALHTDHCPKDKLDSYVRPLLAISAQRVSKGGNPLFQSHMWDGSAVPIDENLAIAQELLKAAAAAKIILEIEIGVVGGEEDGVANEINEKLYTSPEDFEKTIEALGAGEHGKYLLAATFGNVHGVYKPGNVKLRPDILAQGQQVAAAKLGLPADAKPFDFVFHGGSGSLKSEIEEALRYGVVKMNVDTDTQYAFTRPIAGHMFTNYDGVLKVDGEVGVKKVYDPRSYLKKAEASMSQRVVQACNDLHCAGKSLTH

[4] = target: T4, fMet-Leu-Phe receptor (Homo sapiens, UniProt P21462); assay: formyl peptide receptor binders – dose response (AID 519); type: functional
T4 sequence (P21462 whole entry): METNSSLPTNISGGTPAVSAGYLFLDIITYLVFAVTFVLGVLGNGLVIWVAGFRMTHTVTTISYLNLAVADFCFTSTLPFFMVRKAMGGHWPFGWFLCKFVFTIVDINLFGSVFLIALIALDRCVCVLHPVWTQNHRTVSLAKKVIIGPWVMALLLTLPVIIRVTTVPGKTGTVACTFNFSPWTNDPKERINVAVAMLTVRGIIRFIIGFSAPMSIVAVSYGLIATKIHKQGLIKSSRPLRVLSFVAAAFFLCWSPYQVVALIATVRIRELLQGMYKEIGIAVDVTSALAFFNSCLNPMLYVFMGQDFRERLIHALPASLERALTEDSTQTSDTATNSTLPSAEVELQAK

[5] = NIH-3T3 fibroblast cytotoxicity, dose response, cytotoxicity control, cell-based, fluorescence, Alamar Blue, secondary assay (AID 2327); type: functional;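 note: NIH-3T3 mouse fibroblasts cultured with fluconazole at 8 µg/mL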
[6] = fluconazole-exposed Candida albicans growth modulators – fluorescence, retest, confirmation (AID 2467); type: functional, cell-based
[7] = target: T5, Mannose-6-phosphate isomerase (Homo sapiens, UniProt P34949); assay: MPI enzyme activity inhibition – biochemical, fluorescence intensity, coupled assay, primary screen (AID 1209)
T5 sequence (P34949 whole entry): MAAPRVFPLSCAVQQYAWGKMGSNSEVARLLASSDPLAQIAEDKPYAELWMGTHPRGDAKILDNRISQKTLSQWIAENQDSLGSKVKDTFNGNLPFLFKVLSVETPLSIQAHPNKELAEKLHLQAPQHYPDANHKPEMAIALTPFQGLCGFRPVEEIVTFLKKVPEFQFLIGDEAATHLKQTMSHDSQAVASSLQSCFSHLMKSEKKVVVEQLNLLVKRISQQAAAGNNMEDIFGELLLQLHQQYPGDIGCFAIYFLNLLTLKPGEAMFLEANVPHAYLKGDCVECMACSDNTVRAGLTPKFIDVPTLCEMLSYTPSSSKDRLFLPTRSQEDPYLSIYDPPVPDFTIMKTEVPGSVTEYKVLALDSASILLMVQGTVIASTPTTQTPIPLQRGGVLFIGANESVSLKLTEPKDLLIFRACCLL

[8] = target: Nonstructural protein 1 (Influenza A virus, UniProt Q194T2); type: functional, Influenza A virus (A/California/07/2009(H1N1))
[9] = potency of ADAM10 substrate cleavage blockers – biochemical, QFRET, dose response (AID 743254);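 note: ADAM10 enzyme with the DM2 quenched FRET peptide as substrate; EDANS fluorescence gain as the protease cuts the substrate; inhibitor potency against ADAM10 proteolytic activity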
[10] = target: T6, Disintegrin and metalloproteinase domain-containing protein 17 (Homo sapiens, UniProt P78536); assay: inhibition of ADAM17 substrate cleavage – biochemical, quenched FRET substrate, counter-screen for ADAM10 exosite inhibitor project, dose response (AID 743253)
[11] = cells; type: functional, cell-based
[12] = cells; type: functional, cell-based; remark: listed apart in the source
[13] = target: 26S proteasome non-ATPase regulatory subunit 14 (Homo sapiens, UniProt O00487); assay: inhibition of proteasome subunit RPN11 – biochemical, fluorescence polarization, uHTS hits, confirmation (AID 602368); type: functional
[14] = target: 72 kDa type IV collagenase (Homo sapiens, UniProt P08253); assay: Dose Response validation of uHTS RPN11 inhibitor hits using a MMP-2 Fluorescence assay.; type: functional
[15] = target: Prothrombin (Bos taurus, UniProt P00735); assay: thrombin protease inhibitors – biochemical, fluorescence polarization, uHTS hits, dose response (AID 602369); type: functional
[16] = target: T6, Disintegrin and metalloproteinase domain-containing protein 17; assay: exosite inhibitors of ADAM17, dose response, biochemical (AID 743260)

T6 sequence (P78536 whole entry, the tested form may be a part): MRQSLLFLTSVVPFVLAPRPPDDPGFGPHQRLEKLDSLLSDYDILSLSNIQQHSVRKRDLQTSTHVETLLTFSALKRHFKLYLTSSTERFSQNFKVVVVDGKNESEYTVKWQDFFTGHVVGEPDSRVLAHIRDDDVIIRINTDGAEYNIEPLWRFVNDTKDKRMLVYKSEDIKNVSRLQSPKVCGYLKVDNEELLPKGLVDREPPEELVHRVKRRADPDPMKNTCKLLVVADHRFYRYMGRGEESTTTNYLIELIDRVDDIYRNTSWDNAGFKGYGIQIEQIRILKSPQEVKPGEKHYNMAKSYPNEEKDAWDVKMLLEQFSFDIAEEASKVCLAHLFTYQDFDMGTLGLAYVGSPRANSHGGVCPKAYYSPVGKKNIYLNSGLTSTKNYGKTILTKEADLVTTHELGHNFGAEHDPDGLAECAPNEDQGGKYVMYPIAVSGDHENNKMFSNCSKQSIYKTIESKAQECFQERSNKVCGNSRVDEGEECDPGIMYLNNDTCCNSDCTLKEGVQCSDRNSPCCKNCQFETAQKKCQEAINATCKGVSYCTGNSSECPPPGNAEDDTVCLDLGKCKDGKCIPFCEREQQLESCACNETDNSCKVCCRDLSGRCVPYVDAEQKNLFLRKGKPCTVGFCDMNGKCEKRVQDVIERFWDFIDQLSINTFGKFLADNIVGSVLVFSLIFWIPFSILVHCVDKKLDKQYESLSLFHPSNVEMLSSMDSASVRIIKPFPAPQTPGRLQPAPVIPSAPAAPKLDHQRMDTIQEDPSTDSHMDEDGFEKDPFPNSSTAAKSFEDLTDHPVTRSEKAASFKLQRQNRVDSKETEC
72 kDa type IV collagenase, sequence (P08253 whole entry): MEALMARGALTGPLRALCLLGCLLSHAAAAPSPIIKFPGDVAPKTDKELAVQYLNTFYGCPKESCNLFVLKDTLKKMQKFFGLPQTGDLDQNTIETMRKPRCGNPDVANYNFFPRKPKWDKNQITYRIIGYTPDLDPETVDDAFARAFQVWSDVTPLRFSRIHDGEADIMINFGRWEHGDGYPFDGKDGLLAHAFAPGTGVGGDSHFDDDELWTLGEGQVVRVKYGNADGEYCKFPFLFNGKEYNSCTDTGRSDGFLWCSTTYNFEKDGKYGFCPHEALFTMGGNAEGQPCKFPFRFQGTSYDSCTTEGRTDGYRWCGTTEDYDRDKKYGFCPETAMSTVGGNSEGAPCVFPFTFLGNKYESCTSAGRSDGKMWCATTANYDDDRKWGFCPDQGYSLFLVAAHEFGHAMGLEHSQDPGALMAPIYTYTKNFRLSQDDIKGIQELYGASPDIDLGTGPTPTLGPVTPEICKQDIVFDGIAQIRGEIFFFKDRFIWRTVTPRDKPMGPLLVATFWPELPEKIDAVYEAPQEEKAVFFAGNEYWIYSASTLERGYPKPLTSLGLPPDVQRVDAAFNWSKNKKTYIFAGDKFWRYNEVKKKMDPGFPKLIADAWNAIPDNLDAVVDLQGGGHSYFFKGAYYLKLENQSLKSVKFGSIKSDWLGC
Nonstructural protein 1, sequence (Q194T2 whole entry): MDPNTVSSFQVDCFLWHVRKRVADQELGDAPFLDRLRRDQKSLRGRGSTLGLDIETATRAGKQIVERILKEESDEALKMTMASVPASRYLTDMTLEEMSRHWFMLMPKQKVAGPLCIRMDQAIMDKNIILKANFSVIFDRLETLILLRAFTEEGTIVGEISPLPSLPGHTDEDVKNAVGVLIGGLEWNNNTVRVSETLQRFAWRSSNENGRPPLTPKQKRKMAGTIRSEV
26S proteasome non-ATPase regulatory subunit 14, sequence (O00487 whole entry): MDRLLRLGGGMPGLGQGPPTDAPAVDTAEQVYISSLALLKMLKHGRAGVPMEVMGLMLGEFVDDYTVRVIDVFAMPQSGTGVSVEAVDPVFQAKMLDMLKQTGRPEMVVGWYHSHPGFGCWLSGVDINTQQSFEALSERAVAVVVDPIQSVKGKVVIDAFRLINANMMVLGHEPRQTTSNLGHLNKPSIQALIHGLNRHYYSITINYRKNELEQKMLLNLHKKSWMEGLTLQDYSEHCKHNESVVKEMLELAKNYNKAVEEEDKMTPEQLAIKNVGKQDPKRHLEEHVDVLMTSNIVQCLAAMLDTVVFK

Compound: COc1ccccc1-c1c(C)oc2cc(OC(=O)c3ccco3)ccc2c1=O
- AC50 [1]: 21.8 µM (active)
- EC50 [2]: 23.8 µM (active)
- IC50 [3]: 1.55 µM (active)
- Ki [4]: 9 µM (active)

Compound: OCCN1CCN(Cc2cc(Cl)c3cccnc3c2O)CC1
- EC50 [5]: 121 µM (active)
- EC50 [6]: > 38 µM (not active)
- IC50 [7]: 4.09 µM (active)
- IC50 [8]: 3.93 µM (active)

Compound: C=CC[C@@H](CC(=O)N(CCO)Cc1ccccc1)C(=O)N[C@H](COC(=O)[C@@H](CC=C)Cc1ccc(F)cc1)Cc1c[nH]c2ccccc12
- IC50 [9]: > 69.5 µM (inactive)
- IC50 [10]: > 69.5 µM (inactive)

Compound: CCc1ccc(/C=c2\s/c(=C\C(=O)C(C)(C)C)[nH]c2=O)cc1
- IC50 [9]: > 69.5 µM (inactive)
- IC50 [10]: > 69.5 µM (inactive)

Compound: COCC/N=c1\scc(-c2cc(OC)c(OC)c(OC)c2)n1/N=C/c1c(C)[nH]c2ccccc12
- EC50 [11]: > 350 µM (not active)
- EC50 [12]: > 350 µM (not active)
- IC50 [13]: 76.9 µM (active)
- IC50 [14]: > 100 µM (inactive)
- IC50 [15]: 57.9 µM (active)
- IC50 [9]: > 69.5 µM (inactive)
- IC50 [16]: > 69.5 µM (inactive)
- IC50 [10]: > 69.5 µM (inactive)
